Experimental findings from patent publication US11814386B2, “Fused pyrrolines which act as ubiquitin-specific protease 30 (USP30) inhibitors” (FORMA Therapeutics, Inc., priority 2018, dated 2023) are described below.

In this assay the target is human recombinant USP30 (Homo sapiens (Human), UniProt Q70CQ3). In words: Ubiquitin-Rhodamine 110 Assay for USP30 Activity. It is filed as biochemical. The settings on record: 0.2 nM USP30, 25 nM Ub-Rh110, 30 min preincubation. The procedure:
The assay was performed in a final volume of 9 μL in assay buffer containing 20 mM Tris-HCl (pH 8.0, (IM Tris-HCl, pH 8.0 solution; Corning 46-031-CM)), 1 mM GSH (L-glutathione reduced, Sigma-Aldrich, G4251-100G), 0.03% BGG (0.22 μM filtered, Sigma, G7516-25G), and 0.01% Triton X-100 (Sigma, T9284-10L). Nanoliter quantities of 10-point, 3-fold serial dilution in DMSO were pre-dispensed into 1536 assay plates (Corning, #3724BC) for a final test concentration of 25 μM to 1.3 nM, top to lowest dose, respectively. Concentration and incubation times were optimized for the maximal signal-to-background while maintaining initial velocity conditions at a fixed substrate concentration. The final concentration of USP30 (human recombinant USP30, Boston Biochem, cat. #E-582) in the assay was 0.2 nM. Final substrate (Ub-Rh110; Ubiquitin-Rhodamine 110, UbiQ-126) concentration was 25 nM with [Ub-Rh110]<<Km. 3 μL of 2×USP30 was added to assay plates (pre-stamped with compound), preincubated for 30 minutes and then treated with 3 μL of 2×Ub-Rh110. Plates were incubated for 30 minutes at room temperature before addition of 3 μL of stop solution (final concentration of 10 mM citric acid (Sigma, 251275-500G)). Fluorescence was read on the Envision (excitation at 485 nm and emission at 535 nm; Perkin Elmer) or on the PheraSTAR (excitation at 485 nm and emission at 535 nm; BMG Labtech) fluorescence reader.
For all assay formats, data were reported as percent inhibition compared with control wells based on the following equation: % inh=1−((FLU−AveLow)/(AveHigh−AveLow)) where FLU=measured Fluorescence, AveLow=average Fluorescence of no enzyme control (n=16), and AveHigh=average Fluorescence of DMSO control (n=16). IC50 values were determined by curve fitting of the standard 4 parameter logistic fitting algorithm included in the Activity Base software package: IDBS XE Designer Model205. Data is fitted using the Levenburg Marquardt algorithm.

Sequence of human recombinant USP30 (Q70CQ3 whole entry): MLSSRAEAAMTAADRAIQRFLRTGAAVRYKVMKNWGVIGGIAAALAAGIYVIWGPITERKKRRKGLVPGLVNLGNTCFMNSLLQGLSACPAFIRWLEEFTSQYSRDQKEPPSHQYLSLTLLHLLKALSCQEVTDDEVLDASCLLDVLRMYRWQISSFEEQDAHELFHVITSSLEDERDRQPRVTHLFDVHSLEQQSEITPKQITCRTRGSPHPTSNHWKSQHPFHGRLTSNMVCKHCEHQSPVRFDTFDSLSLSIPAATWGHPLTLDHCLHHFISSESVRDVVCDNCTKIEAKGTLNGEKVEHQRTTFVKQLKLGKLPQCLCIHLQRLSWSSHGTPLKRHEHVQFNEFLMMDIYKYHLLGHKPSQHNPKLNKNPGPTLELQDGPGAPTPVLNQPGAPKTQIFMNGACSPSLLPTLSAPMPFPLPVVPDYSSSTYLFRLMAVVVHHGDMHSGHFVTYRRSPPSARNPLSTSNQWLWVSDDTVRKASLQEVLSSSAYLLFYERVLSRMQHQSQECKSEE

Consider `N#CN1C[C@@H]2C[C@H]1[C@@H]2NC(=O)c1cc(-c2ccccc2Oc2ccccc2)[nH]n1` (single isomer, unassigned) [Compound 8-b], for which the IC50 fell in the range of 100 to 1000 nM.
With `N#CN1C[C@@H]2C[C@H]1CN2C(=O)c1cc(-c2ccccc2Oc2ccccc2)[nH]n1` (single isomer, unassigned) [Compound 4-a], the IC50 lay in the range of 100 to 1000 nM.
In the case of `N#CN1C[C@@H]2CCC[C@]2(NC(=O)c2cc(-c3ccccc3Oc3ccccc3)[nH]n2)C1` (single isomer, unassigned) [Compound 20-a], the IC50 is less than 100 nM.
Regarding `N#CN1C[C@H]2C[C@@]2(NC(=O)c2cc(-c3ccccc3Oc3ccccc3)[nH]n2)C1` (single isomer, unassigned) [Compound 3-a], the IC50 lay within 100 to 1000 nM.
Regarding `N#CN1C[C@H]2CCC[C@@]2(NC(=O)c2cc(-c3ccccc3Oc3ccccc3)[nH]n2)C1` (single isomer, unassigned) [Compound 20-b], the IC50 was less than 100 nM.
The value for `N#CN1C[C@@H]2C[C@]2(NC(=O)c2cc(-c3ccccc3Oc3ccccc3)[nH]n2)C1` (single isomer, unassigned) [Compound 3-b] was less than 100 nM.
As for `N#CN1CC2CCC1C2NC(=O)c1cc(-c2ccccc2Oc2ccccc2)[nH]n1` (single isomer, unassigned) [Compound 2-a], the IC50 is less than 100 nM.
As to `N#CN1C[C@@H]2CC[C@]2(NC(=O)c2cc(-c3ccccc3Oc3ccccc3)[nH]n2)C1` (stereo in doubt) [Compound 6-a, N-((1R,5S)-3-cyano-3-azabicyclo[3.2.0]heptan-1-yl)-5-(2-phenoxyphenyl)-1H-pyrazole-3-carboxamide], the IC50 is less than 100 nM.
For `N#CN1C[C@H]2CC[C@@]2(NC(=O)c2cc(-c3ccccc3Oc3ccccc3)[nH]n2)C1` (stereo in doubt) [Compound 6-b, N-((1S,5R)-3-cyano-3-azabicyclo[3.2.0]heptan-1-yl)-5-(2-phenoxyphenyl)-1H-pyrazole-3-carboxamide], the IC50 fell in the range of 100 to 1000 nM.
Next, `N#CN1C[C@H]2C[C@@H]1CCN2C(=O)c1cc(-c2ccccc2Oc2ccccc2)[nH]n1` (single isomer, unassigned) [Compound 1b]: less than 100 nM; `N#CN1C[C@H](NC(=O)c2cc(-c3ccccc3Oc3ccccc3)[nH]n2)C2(CC2)C1` (single isomer, unassigned) [Compound 5-b]: 100 to 1000 nM.
Take `N#CN1C[C@H]2C[C@@H]1CN2C(=O)c1cc(-c2ccccc2Oc2ccccc2)[nH]n1` (single isomer, unassigned) [Compound 4-b]: the IC50 was 100 to 1000 nM.
In the case of `N#CN1CC2CCC1C2NC(=O)c1cc(-c2ccccc2Oc2ccccc2)[nH]n1` (single isomer, unassigned) [Compound 2-b], the IC50 is more than 1000 nM.
Take `N#CN1C[C@H](NC(=O)c2cc(-c3ccccc3Oc3ccccc3)[nH]n2)CC12COC2` (single isomer, unassigned) [Compound 9-b]: the IC50 is more than 1000 nM.
On to `N#CN1C[C@@H]2C[C@H]1CCN2C(=O)c1cc(-c2ccccc2Oc2ccccc2)[nH]n1` (single isomer, unassigned) [Compound 1-a], for which the IC50 fell in the range of 100 to 1000 nM.
Turning to `N#CN1C[C@@H](NC(=O)c2cc(-c3ccccc3Oc3ccccc3)[nH]n2)C2(CC2)C1` (single isomer, unassigned) [Compound 5-a], the IC50 was less than 100 nM.
With `N#CN1C[C@@H](NC(=O)c2cc(-c3ccccc3Oc3ccccc3)[nH]n2)CC12COC2` (single isomer, unassigned) [Compound 9-a], the IC50 is more than 1000 nM.
Consider `N#CN1C[C@H]2C[C@@H]1[C@H]2NC(=O)c1cc(-c2ccccc2Oc2ccccc2)[nH]n1` (single isomer, unassigned) [Compound 8-a], for which the IC50 lay within 100 to 1000 nM.

By IC50 is commonly meant the point on the concentration scale where inhibition reaches its midpoint.
